Results on 3 compounds are retold here after ChEMBL document CHEMBL1128291, “The C-32 triacetyl-L-rhamnose derivative of ascomycin: a potent, orally active macrolactone immunosuppressant” (J Med Chem, 1995).

In data set [1] the test system is Rattus norvegicus. Description: In vivo immunosuppressive activity was evaluated by inducing arthritis in lewis rats and measuring the primary lesions after 16 days. Particulars: 384 h. It counts as functional.
Data set [2] is described as follows: Therapeutic index is the plasma Cmax ratio of the minimum neurotoxic dose over the ED50 dose in rat adjuvant arthritis. The conditions noted are these: read-out: TI.
Data set [3] deals with T-cell. Description: In vitro inhibitory activity against human T-cell proliferation. It counts as functional, cell-based.
Data set [4] concerns Rattus norvegicus. Description: In vivo immunosuppressive activity was evaluated by inducing arthritis in lewis rats and measuring the secondary lesions after 16 days. Particulars: 384 h. The format is functional.
The species entered for data set [5] is Rattus norvegicus. Description: Minimum neurotoxic dose from ED50(rat adjuvant arthritis). The format is functional.
Data set [6] deals with T-cell. Description: In vitro inhibitory activity against human T-cell production of lymphokine IL-2. It counts as functional, cell-based.
Data set [7] is described as follows: Therapeutic index was determined from the ratio of MND to the ED50 Cmax.(rat adjuvant arthritis).
Data set [8] has as its system Rattus norvegicus. Description: In vivo immunosuppressive activity was evaluated by surgically implanting the hearts from Brown Norway rats into the peritoneal cavity of histoincompatible Lewis rats and rejection was assessed. It counts as functional.
Data set [9] can be described thus: Drug plasma level in rat was determined on the last day of dosing at 1,2,4.8 and 24 hr and ED50 was evaluated. It counts as ADME, organism-based.
The species named for data set [10] is Rattus norvegicus. Description: Minimum neurotoxic dose/Cmax was determined from ED50(rat adjuvant arthritis). The format is functional.

For orientation: ED50 means the dose that gives a 50% effect, or the effect in half of the subjects. A higher ED50 goes with a need for a large dose. A word on the IC50: it is the point on the concentration scale where inhibition reaches its midpoint. The low end stands for inhibition by little substance, the high end for a need for much substance. The Cmax is the highest concentration seen after dosing. Consider `CC[C@@H]1/C=C(\C)C[C@H](C)C[C@H](OC)[C@H]2O[C@@](O)(C(=O)C(=O)N3CCCC[C@H]3C(=O)O[C@H](/C(C)=C/[C@@H]3CC[C@@H](OC4OC(C)C(OC(C)=O)C(OC(C)=O)C4OC(C)=O)[C@H](OC)C3)[C@H](C)[C@@H](O)CC1=O)[C@H](C)C[C@@H]2OC` (stereo partly drawn), for which the 50% effective dose (ED50) came out at 10 mg/kg with Rattus norvegicus [1] and 2.3 mg/kg in the data set with Rattus norvegicus [4]. Also, in data set [2], the selectivity ratio was over 10. Further, the IC50 with T-cell [3] is 10.4 nM; in the data set on T-cell [6], 11 nM. Also, the MND in the data set listed under Rattus norvegicus [5] was over 300 mg/kg. The Therapeutic index in data set [7] is over 10. This compound also came in with an ED100 in the data set on Rattus norvegicus [8] of 30 mg/kg. Moreover, in data set [9], the Cmax stood at 254 ng/mL. The MND Cmax in the data set filed under Rattus norvegicus [10] is over 2910 ng/mL.
With `C/C=C/C[C@@H](C)[C@@H](O)[C@H]1C(=O)N[C@@H](CC)C(=O)N(C)CC(=O)N(C)[C@@H](CC(C)C)C(=O)N[C@@H](C(C)C)C(=O)N(C)[C@@H](CC(C)C)C(=O)N[C@@H](C)C(=O)N[C@H](C)C(=O)N(C)[C@@H](CC(C)C)C(=O)N(C)[C@@H](CC(C)C)C(=O)N(C)[C@@H](C(C)C)C(=O)N1C` [CYCLOSPORINE], the ED50 came out at 3.4 mg/kg in the data set on Rattus norvegicus [1] and 0.7 mg/kg with Rattus norvegicus [4]. The compound also gave an ED100 in the data set on Rattus norvegicus [8] of 15 mg/kg.
Regarding `C=CC[C@@H]1/C=C(\C)C[C@H](C)C[C@H](OC)[C@H]2O[C@@](O)(C(=O)C(=O)N3CCCC[C@H]3C(=O)O[C@H](/C(C)=C/[C@@H]3CC[C@@H](O)[C@H](OC)C3)[C@H](C)[C@@H](O)CC1=O)[C@H](C)C[C@@H]2OC` [TACROLIMUS ANHYDROUS], the 50% effective dose (ED50) with Rattus norvegicus [1] is 1.9 mg/kg; in the data set on Rattus norvegicus [4], 0.6 mg/kg. Moreover, the selectivity ratio in data set [2] was about 2. For the same compound, the IC50 in the data set with T-cell [3] came to 0.5 nM; with T-cell [6] it was 0.9 nM. Besides, the MND in the data set filed under Rattus norvegicus [5] was 12 mg/kg. Moreover, the Therapeutic index in [7] was found to be 2. The compound further gave an ED100 in the data set with Rattus norvegicus [8] of 3 mg/kg. Also, the peak level in data set [9] (Cmax) was 24 ng/mL. Further, in the data set filed under Rattus norvegicus [10], the MND Cmax came to 52 ng/mL.
